The text below walks through data of patent publication US7473669B2, “Substituted 4,5-dihydro-1,2,4-triazin-6-ones, 1,2,4-triazin-6-ones, and their use as fungicides” (priority 2005, dated 2009).

Common to all, as to format: in vivo
In one assay the test system is Colletotricum lagenarium. As to the kind of experiment: Cucumber Anthracnose greenhouse one-day protectant test. Particulars: Cucumis sativus, 24 h, cucumber plants, one-day protectant test, 200 ppm application rate; read-out: COLLLA percent control rating.
For a further assay, the system named is Pyricularia oryzae. Kind of assay: whole plant or invertebrate. Conditions: 24 h, read-out: PYRIOR percent control rating.
Assay [1] deals with Puccinia recondita tritici. As to the kind of experiment: Leaf Rust of Wheat greenhouse one-day protectant test. Particulars: 24 h, wheat plants, one-day protectant test, 200 ppm application rate, read-out: PUCCRT percent control rating.
The next assay has as its system Phytophthora infestans. Kind of assay: whole plant or invertebrate. Particulars: in Solanum lycopersicum, 24 h, read-out: PHYTIN percent control rating, tomato plants, one-day protectant test, 200 ppm application rate.
Another assay deals with Leptosphaeria nodorum. As to the kind of experiment: Glume Blotch of Wheat greenhouse one-day protectant test. Particulars: Parastagonospora nodorum, 24 h; wheat plants, one-day protectant test, 200 ppm application rate; read-out: LEPTNO percent control rating.
A further assay deals with Erysiphe cichoracaerum. Kind of assay: Cucumber Powdery Mildew greenhouse one-day protectant test. Particulars: 24 h, cucumber plants, one-day protectant test, 200 ppm application rate, read-out: ERYSCI percent control rating.

Take `CS(=O)(=O)OCCN1N=C(c2ccc(Cl)nc2)NCC1=O` [Compound 1]: the pest or weed control at 200 ppm was 0 to 49% with Colletotricum lagenarium; 50 to 79% in the assay on Pyricularia oryzae; 0 to 49% in assay [1]; 0 to 49% in the assay with Phytophthora infestans; 0 to 49% in the assay with Leptosphaeria nodorum; 0 to 49% in the assay with Erysiphe cichoracaerum.
`Cc1cc(C)cc(C2=NN(CCO)C(=O)CN2)c1` [Compound 2]: the pest or weed control at 200 ppm with Colletotricum lagenarium is 0 to 49%; in the assay on Pyricularia oryzae, 80 to 100%; in assay [1] it was 0 to 49%; with Phytophthora infestans, 0 to 49%; in the assay with Leptosphaeria nodorum it was 0 to 49%; in the assay on Erysiphe cichoracaerum, 0 to 49%.
Take `Cc1cc(C)cc(C2=NN(CCOC(=O)Nc3ccc4c(c3)OCO4)C(=O)CN2)c1` [Compound 3]: the pest or weed control at 200 ppm is 50 to 79% in the assay with Colletotricum lagenarium; 80 to 100% in the assay with Pyricularia oryzae; 80 to 100% in assay [1]; 0 to 49% in the assay with Phytophthora infestans; 50 to 79% in the assay on Leptosphaeria nodorum; 0 to 49% in the assay on Erysiphe cichoracaerum.
Turning to `O=C1CNC(c2ccccc2)=NN1CCO` [Compound 4], the pest or weed control at 200 ppm (in the assay on Colletotricum lagenarium; in the assay with Pyricularia oryzae; in assay [1]; in the assay with Phytophthora infestans; in the assay with Leptosphaeria nodorum; in the assay on Erysiphe cichoracaerum) was 0 to 49% throughout.
Take `Cc1cc(C)cc(C2=NN(Cc3ccccn3)C(=O)CN2)c1` [Compound 5]: the pest or weed control at 200 ppm with Colletotricum lagenarium lay in the range of 50 to 79%; in the assay with Pyricularia oryzae, 0 to 49%; in assay [1] it was 0 to 49%; in the assay on Phytophthora infestans, 0 to 49%; in the assay on Leptosphaeria nodorum, 80 to 100%; with Erysiphe cichoracaerum, 0 to 49%.
In the case of `O=C1CNC(c2cc(Cl)cc(Cl)c2)=NN1Cc1ccccn1` [Compound 6], the pest or weed control at 200 ppm lay within 50 to 79% in the assay on Colletotricum lagenarium; 80 to 100% with Pyricularia oryzae; 80 to 100% in assay [1]; 0 to 49% with Phytophthora infestans; 80 to 100% with Leptosphaeria nodorum; 0 to 49% in the assay on Erysiphe cichoracaerum.
Turning to `O=C1CNC(c2cc(Cl)cc(Cl)c2)=NN1CCO` [Compound 7], the pest or weed control at 200 ppm with Colletotricum lagenarium lay in the range of 0 to 49%; in the assay on Pyricularia oryzae, 0 to 49%; in assay [1] it was 50 to 79%; in the assay on Phytophthora infestans it was 0 to 49%; in the assay with Leptosphaeria nodorum, 50 to 79%; with Erysiphe cichoracaerum it was 0 to 49%.
For `O=C1CNC(c2cc(Cl)cc(Cl)c2)=NN1CO` [Compound 8], the pest or weed control at 200 ppm was in the range of 0 to 49% with Colletotricum lagenarium; 0 to 49% in the assay on Pyricularia oryzae; 0 to 49% in assay [1]; 0 to 49% in the assay on Phytophthora infestans; 50 to 79% in the assay with Leptosphaeria nodorum; 0 to 49% in the assay with Erysiphe cichoracaerum.
`O=C1CNC(c2ccc(Cl)c(Cl)c2)=NN1CO` [Compound 9]: the pest or weed control at 200 ppm lay in the range of 0 to 49% with Colletotricum lagenarium; 0 to 49% in the assay on Pyricularia oryzae; 50 to 79% in assay [1]; 0 to 49% in the assay on Phytophthora infestans; 80 to 100% in the assay on Leptosphaeria nodorum; 0 to 49% in the assay with Erysiphe cichoracaerum.
On to `O=C1CNC(c2ccc(Cl)c(Cl)c2)=NN1C(=O)C(F)(F)F` [Compound 10], for which the pest or weed control at 200 ppm with Colletotricum lagenarium was in the range of 50 to 79%; in the assay on Pyricularia oryzae, 80 to 100%; in assay [1], 0 to 49%; with Phytophthora infestans, 0 to 49%; with Leptosphaeria nodorum it was 50 to 79%; in the assay on Erysiphe cichoracaerum, 0 to 49%.
As for `O=C1C(SC2CCCCC2)NC(c2ccc(F)c(-c3ccccc3)c2)=NN1CC(F)(F)F` (stereo not shown) [Compound 48], the pest or weed control at 200 ppm with Pyricularia oryzae was in the range of 80 to 100%; in assay [1] it was 80 to 100%; in the assay on Leptosphaeria nodorum, 80 to 100%; in the assay on Erysiphe cichoracaerum it was 0 to 49%.
